Series [1] addresses T1, Peptidyl-prolyl cis-trans isomerase FKBP1A (Homo sapiens, UniProt P62942). As to the kind of experiment: Inhibition of FKBP12 (unknown origin) measured for 6 hrs relative to control. The note with it: concentration not given here.
Series [2] in a line: Half life in mouse plasma at 10 mg/kg, ip measured after 12 hrs. It is filed as ADME, organism-based.
In series [3] the target is T1, Peptidyl-prolyl cis-trans isomerase FKBP1A. Put plainly: Inhibition of FKBP12 (unknown origin).
The target of series [4] is Human immunodeficiency virus type 1 protease (Human immunodeficiency virus 1, UniProt Q72874). Put plainly: Inhibition of HIV-1 protease by FRET-based assay.
A short description of series [5]: Stability of compound in human Caco-2 cells assessed as half life measured for 48 hrs. It is filed as ADME, cell-based.
A short description of series [6]: Stability of compound in DPBS buffer at pH 7.4 assessed as half life measured for 48 hrs. In kind it is physicochemical.
The nature of series [7]: Stability of compound in PBS buffer at pH 7.4 assessed as half life. It is filed as physicochemical.
Series [8] is described as follows: Half life in mouse plasma at 10 mg/kg, ip measured after 3 hrs. It is filed as ADME, organism-based.

The source of these data is ChEMBL document CHEMBL5260814, “Design strategies in the prodrugs of HIV-1 protease inhibitors to improve the pharmaceutical properties” (Eur J Med Chem, 2017).

T1 sequence (P62942 whole entry): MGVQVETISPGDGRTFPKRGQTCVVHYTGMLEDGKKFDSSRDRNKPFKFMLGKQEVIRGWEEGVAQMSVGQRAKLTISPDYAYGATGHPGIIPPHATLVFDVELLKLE

As to `CCC(C)(C)C(=O)C(=O)N1CCCCC1C(=O)OC(CCc1ccc(OC)c(OC)c1)c1cccc(NC(=O)CCC(=O)N[C@@H](Cc2ccccc2)[C@H](O)CN(CC(C)C)S(=O)(=O)c2ccc(OC)cc2)c1` (stereo not given in full), in series [1], the inhibition (commonly the drop in the measured response relative to a control, in per cent) amounted to 100%. Besides, the half-life (in general, the time in which the quantity being followed falls by half) in series [2] was > 9 h. Moreover, the IC50 – broadly, the midpoint of a concentration-inhibition curve – turned out to be 11.8 nM in series [3] and 9.8 nM in series [4].
For `CC(C)(C)NC(=O)[C@@H]1C[C@@H]2CCCC[C@@H]2CN1C[C@@H](OC(=O)CCC(=O)OCC(O)C1OC(=O)C(O)=C1O)[C@H](Cc1ccccc1)NC(=O)[C@H](CC(N)=O)NC(=O)c1ccc2ccccc2n1` (stereo not given in full), the results for the half-life in series [5] and in series [6] were 5.73 h and 9.65 h, respectively.
In the case of `Cc1cccc(C)c1OCC(=O)N[C@@H](Cc1ccccc1)[C@H](O)C(=O)N1CSC(C)(C)[C@H]1C(=O)NC(C)(C)C`, in series [7], the half-life came out at 4 min.
On to `COc1ccc(S(=O)(=O)N(CC(C)C)C[C@@H](O)[C@H](Cc2ccccc2)NC(=O)O[C@H]2CCOC2)cc1`, for which the inhibition in series [1] came out at 100%. The molecule also returned a half-inhibitory concentration (IC50) in series [4] of 4.2 nM. For the same molecule, in series [8], the half-life worked out at 0.5 h.
